22 molecules from PubChem BioAssay AID338 (DTP/NCI, 2004) can be followed below.

Structures are written as SMILES. Several values for one entry are separate records, joined by “and”; a condition that tells them apart may be missing. Equal entries are not always repeated. Toxic doses and inconclusive results are not listed.

For this assay, the system named is BDF1 mice, P388 leukemia (terephthalanilide-resistant), survival T/C. The experiment in a line: NCI In Vivo Anticancer Drug Screen. Data for tumor model P388 Leukemia resistant to A Terephthalanilide; NSC 38280 (intraperitoneal) in B6D2F1 (BDF1) mice. The following applies: endpoint: median survival time, higher = longer survival. As to the method: The antitumor activity of compounds was measured in mice bearing transplantable tumors. Survival or tumor size were measured and the results are expressed as the measurement made in the treated group (T) divided by the measurement made in the vehicle treated control group (C). The tumor model used in this assay is P388 Leukemia resistant to A Terephthalanilide; NSC 38280 (intraperitoneal) in B6D2F1 (BDF1) mice

The mark [1] stands for this setting: dose: 5.0 mg/kg/injection, schedule: Q01DX010 (ip), vehicle: saline.
[2] abbreviates: dose: 10.0 mg/kg/injection, schedule: Q01DX010 (ip), vehicle: saline.
Setting [3] is: dose: 20.0 mg/kg/injection, schedule: Q01DX010 (ip), vehicle: saline.
Setting [4] is: dose: 40.0 mg/kg/injection, schedule: Q01DX010 (ip), vehicle: saline.
The mark [5] stands for this setting: dose: 2.0 mg/kg/injection, schedule: Q01DX010 (ip), vehicle: saline.
The mark [6] stands for this setting: dose: 4.0 mg/kg/injection, schedule: Q01DX010 (ip), vehicle: saline.
The mark [7] stands for this setting: dose: 8.0 mg/kg/injection, schedule: Q01DX010 (ip), vehicle: saline.
Where [8] appears, read: dose: 16.0 mg/kg/injection, schedule: Q01DX010 (ip), vehicle: saline.
The mark [9] stands for this setting: dose: 12.0 mg/kg/injection, schedule: Q01DX010 (ip), vehicle: saline.
The mark [10] stands for this setting: dose: 62.5 mg/kg/injection, schedule: Q01DX010 (ip), vehicle: saline.
Where [11] appears, read: dose: 125.0 mg/kg/injection, schedule: Q01DX010 (ip), vehicle: saline.
The mark [12] stands for this setting: dose: 250.0 mg/kg/injection, schedule: Q01DX010 (ip), vehicle: saline.
The mark [13] stands for this setting: dose: 200.0 mg/kg/injection, schedule: Q01DX010 (ip), vehicle: saline.
The mark [14] stands for this setting: dose: 31.3 mg/kg/injection, schedule: Q01DX010 (ip), vehicle: saline.
Where [15] appears, read: dose: 30.0 mg/kg/injection, schedule: Q01DX010 (ip), vehicle: saline.
Setting [16] is: dose: 54.0 mg/kg/injection, schedule: Q01DX010 (ip), vehicle: saline.
Where [17] appears, read: dose: 0.25 mg/kg/injection, schedule: Q01DX010 (ip), vehicle: saline.

Take `CN(C)c1ccc(/C=C/c2ccnc3ccccc23)cc1`: the T/C was 100 % of control and 111 % of control under setting [1]; 100 % of control and 111 % of control under setting [2]; 90 % of control and 94 % of control under setting [3]; 116 % of control under setting [4].

Consider `CC(CCC(C)OS(C)(=O)=O)OS(C)(=O)=O` (configuration not stated), for which the T/C is 90 % of control and 95 % of control under setting [5]; 95 % of control and 100 % of control under setting [6]; 100 % of control under setting [7]; 86 % of control and 100 % of control under setting [8].

Turning to `CN(C)c1ccc(/C=C\c2ccnc3ccccc23)cc1`, the T/C by setting is: (dose: 1.5 mg/kg/injection, schedule: Q01DX010 (ip), vehicle: saline) 91 % of control; under setting [9], 91 % of control.

Turning to `N=C(N)c1ccc(Nc2ccc(C(=N)N)cc2)cc1`, the T/C (dose: 3.0 mg/kg/injection, schedule: Q01DX010 (ip), vehicle: saline) was 105 % of control; the T/C (dose: 6.0 mg/kg/injection, schedule: Q01DX010 (ip), vehicle: saline) is 100 % of control; the T/C under setting [9] was 90 % of control.

Consider `Nc1nc(SCc2ccccc2)c2[nH]cnc2n1`, for which the T/C was 105 % of control under setting [7]; 100 % of control and 105 % of control under setting [8]; 121 % of control (dose: 32.0 mg/kg/injection, schedule: Q01DX010 (ip), vehicle: saline); 115 % of control and 122 % of control (dose: 64.0 mg/kg/injection, schedule: Q01DX010 (ip), vehicle: saline).

On to `Oc1cc(CN(CCCl)CCCl)c(O)cc1CN(CCCl)CCCl`, for which the T/C runs as follows: (dose: 0.63 mg/kg/injection, schedule: Q01DX010 (ip), vehicle: saline) 116 % of control; (dose: 1.25 mg/kg/injection, schedule: Q01DX010 (ip), vehicle: saline) 100 % of control and 116 % of control; (dose: 2.5 mg/kg/injection, schedule: Q01DX010 (ip), vehicle: saline) 100 % of control and 116 % of control; under setting [1], 100 % of control and 116 % of control; under setting [2], 110 % of control.

Turning to `Nc1nc(=S)c2ncn(C3OC(CO)C(O)C3O)c2[nH]1` (configuration not stated), the T/C under setting [5] was 109 % of control, the T/C under setting [6] was 104 % of control, the T/C under setting [7] was 105 % of control and the T/C under setting [8] was 105 % of control.

On to `CC(=O)N(C)C`, for which the T/C under setting [10] is 90 % of control and 111 % of control; the T/C under setting [11] is 100 % of control; the T/C under setting [12] is 88 % of control; the T/C (dose: 500.0 mg/kg/injection, schedule: Q01DX010 (ip), vehicle: saline) is 95 % of control and 100 % of control.

`CC/C(=C(/CC)c1ccc(O)cc1)c1ccc(O)cc1`: the T/C by setting is: (dose: 12.5 mg/kg/injection, schedule: Q01DX010 (sc), vehicle: steriod suspending solution) 90 % of control; (dose: 25.0 mg/kg/injection, schedule: Q01DX010 (sc), vehicle: steriod suspending solution) 90 % of control; (dose: 100.0 mg/kg/injection, schedule: Q01DX010 (sc), vehicle: steriod suspending solution) 90 % of control.

As for `Cc1cc(N(CCCl)CCCl)ccc1N=Nc1ccccc1C(=O)O`, the T/C was 116 % of control under setting [1] and 100 % of control under setting [4].

`CN(C)CC(=O)c1ccc(O)c(O)c1`: the T/C runs as follows: under setting [13], 113 % of control; (dose: 300.0 mg/kg/injection, schedule: Q01DX010 (ip), vehicle: saline) 113 % of control; (dose: 450.0 mg/kg/injection, schedule: Q01DX010 (ip), vehicle: saline) 113 % of control.

With `CCOC(=O)NP(=O)(N1CC1(C)C)N1CC1(C)C` (configuration not stated), the T/C by setting is: under setting [14], 110 % of control; under setting [10], 160 % of control; under setting [11], 190 % of control; under setting [12], 160 % of control.

Regarding `Clc1ncnc2nc[nH]c12`, the T/C by setting is: (dose: 7.5 mg/kg/injection, schedule: Q01DX010 (ip), vehicle: saline) 87 % of control; (dose: 15.0 mg/kg/injection, schedule: Q01DX010 (ip), vehicle: saline) 87 % of control and 93 % of control; under setting [15], 87 % of control and 106 % of control; (dose: 60.0 mg/kg/injection, schedule: Q01DX010 (ip), vehicle: saline) 93 % of control.

Take `CS(=O)(=O)OCC(O)C(O)C(O)C(O)COS(C)(=O)=O` (configuration not stated): the T/C is 100 % of control (dose: 50.0 mg/kg/injection, schedule: Q01DX010 (ip), vehicle: saline); 100 % of control (dose: 100.0 mg/kg/injection, schedule: Q01DX010 (ip), vehicle: saline); 100 % of control under setting [13]; 100 % of control (dose: 400.0 mg/kg/injection, schedule: Q01DX010 (ip), vehicle: saline).

Take `CS(=O)(=O)OCCCl`: the T/C is 105 % of control (dose: 18.8 mg/kg/injection, schedule: Q01DX010 (ip), vehicle: saline); 110 % of control and 111 % of control (dose: 37.5 mg/kg/injection, schedule: Q01DX010 (ip), vehicle: saline); 111 % of control and 115 % of control (dose: 75.0 mg/kg/injection, schedule: Q01DX010 (ip), vehicle: saline); 110 % of control and 122 % of control (dose: 150.0 mg/kg/injection, schedule: Q01DX010 (ip), vehicle: saline).

As to `O=C(Nc1cccc(C(=O)Nc2ccc(C3=NCCN3)cc2)c1)c1ccc(C2=NCCN2)cc1`, the T/C under setting [16] is 117 % of control.

As for `C1CN1c1nc(N2CC2)nc(N2CC2)n1`, the T/C is, setting by setting: (dose: 0.13 mg/kg/injection, schedule: Q01DX010 (ip), vehicle: saline) 94 % of control and 100 % of control; under setting [17], 105 % of control and 116 % of control; (dose: 0.5 mg/kg/injection, schedule: Q01DX010 (ip), vehicle: saline) 116 % of control; (dose: 1.0 mg/kg/injection, schedule: Q01DX010 (ip), vehicle: saline) 111 % of control.

Regarding `O=c1[nH]cc(F)c(=O)[nH]1`, the T/C under setting [1] is 120 % of control; the T/C under setting [2] was 150 % of control and 183 % of control; the T/C under setting [3] is 170 % of control and 222 % of control; the T/C under setting [4] is 95 % of control and 111 % of control.

Consider `CN(C)c1ccc(Nc2c3ccccc3nc3ccccc23)cc1`, for which the T/C reads like this: under setting [8], 95 % of control; (dose: 24.0 mg/kg/injection, schedule: Q01DX010 (ip), vehicle: saline) 104 % of control; (dose: 36.0 mg/kg/injection, schedule: Q01DX010 (ip), vehicle: saline) 100 % of control and 104 % of control and 108 % of control; under setting [16], 95 % of control and 100 % of control and 104 % of control; (dose: 80.0 mg/kg/injection, schedule: Q01DX010 (ip), vehicle: saline) 90 % of control and 109 % of control.

Regarding `CC[C@]1(O)C[C@H]2CN(CCc3c([nH]c4ccccc34)[C@@](C(=O)OC)(c3cc4c(cc3OC)N(C=O)[C@H]3[C@@](O)(C(=O)OC)[C@H](OC(C)=O)[C@]5(CC)C=CCN6CC[C@]43[C@@H]65)C2)C1`, the T/C is 105 % of control (dose: 0.03 mg/kg/injection, schedule: Q01DX010 (ip), vehicle: saline); 90 % of control and 100 % of control (dose: 0.03 mg/kg/injection, schedule: Q01DX Z (ip), vehicle: saline); 100 % of control (dose: 0.06 mg/kg/injection, schedule: Q01DX010 (ip), vehicle: saline); 95 % of control (dose: 0.06 mg/kg/injection, schedule: Q01DX Z (ip), vehicle: saline); 111 % of control (dose: 0.12 mg/kg/injection, schedule: Q01DX010 (ip), vehicle: saline); 100 % of control (dose: 0.13 mg/kg/injection, schedule: Q01DX Z (ip), vehicle: saline). In addition, the T/C was 94 % of control under setting [17]; 100 % of control (dose: 0.25 mg/kg/injection, schedule: Q01DX Z (ip), vehicle: saline); 95 % of control and 100 % of control (dose: 0.5 mg/kg/injection, schedule: Q01DX Z (ip), vehicle: saline).

Regarding `CN=C(NC)c1ccc(NC(=O)Nc2ccc(NC(=O)Nc3ccc(C(=NC)NC)cc3)cc2)cc1`, the T/C was 111 % of control (dose: 13.3 mg/kg/injection, schedule: Q01DX010 (ip), vehicle: saline); 94 % of control under setting [3]; 111 % of control under setting [15].

On to `CCCSc1ncnc2nc[nH]c12`, for which the T/C under setting [14] is 118 % of control and the T/C under setting [10] is 112 % of control.
